Measurements: US20250382255A1, “ERYTHRITOL ESTER OF PHENYL BUTYRIC ACID” (AAYAM THERAPEUTICS LLC, priority 2022, published 2025)
Like-named read-outs stand apart in the source and are kept apart here.

Assay: Pharmacokinetics (PK) study, plasma exposure of PBA after oral dosing of PBA analogues
Type: in vivo, SD rats
Protocol: Pharmacokinetics (PK) study was carried out to evaluate the plasma exposure of two PBA analogues (ATX-2022-018 and ATX-2022-034), when dosed orally (PO) at 22.5 mg/kg in 50% Propylene glycol. Dosing was done in overnight fasted SD rats (n=6). After oral (PO) administration blood was collected by serial bleeding at 8 different time points in heparinized tubes. Blood samples were centrifuged at 10,000 rpm for 5 min. at 4° C. to obtain the plasma, which were aspirated into separate labeled tubes and stored at −80° C. Extraction solvent was added to plasma (150 μL 0.1% acetic acid in water: 0.1% acetic acid Methanol, 20:80) was vortexed and shaken on shaker for 10 minutes, centrifuged at 10,000 rpm for 10 minutes at 4° C. Supernatant was used for LC-MS analysis. Parent drug generated that is PBA was monitored by LC-MS (API3200).
Details of the LC column and mobile phase used for the analysis is provided below: • Column: Gemini NX C18, 50 mm*4.6 mm*3.5μ • Mobile Phase: A: 0.1% Acetic in Water • B: 0.1% Acetic acid in Methanol • Flow rate: 0.600 mL/min, gradient program
Acetonitrile and plasma calibration curves were generated and percentage of drug recovery from plasma determined. Quantitative analysis was done by liquid chromatography tandem mass spectrometer (API3200 LC-MS/MS). Cmax, Tmax, AUC and t½ were calculated using Graph Pad PRISM version 5.04.

[1] = SD, rat, in vivo, po, 22.5 mg/kg
[2] = PBA monitored in plasma by LC-MS, overnight fasted SD rats, PO 22.5 mg/kg in 50% Propylene glycol

SMILES | AUC [1] | CHANGE of AUC (Increase) [1] | CHANGE of CL (Decrease) [1] | CHANGE of Cmax (Increase) [1] | CHANGE of MRT (Increase) [1] | CHANGE of Vd (Decrease) [1] | CL [1] | Cmax [1] | MRT [1] | Tmax [1] | Vd [1] | AUC [2] | CL [2] | MRT [2] | Tmax [2] | Vd [2] | Cmax (PBA monitored in plasma by LC-MS, overnight fasted SD rats, PO 22.5 mg/kg in 50% Propylene glycol, read-out: Cmax)
O=C(CCCc1ccccc1)OC[C@H](OC(=O)CCCc1ccccc1)[C@@H](COC(=O)CCCc1ccccc1)OC(=O)CCCc1ccccc1 [ERYTHRITOL ANALOG OF PBA, (2R,3S)-butane-1,2,3,4-tetrayl tetrakis(4-phenylbutanoate)] | 104,814 nM · h | Increase 3-fold | Decrease 2.7-fold | Increase 4-fold | Increase 1.5-fold | Decrease 2.75-fold | 225 mL/h | 51.3 µM | 36 min | 12 min | 2,600 ml | – | – | – | – | – | –
O=C(CCCc1ccccc1)OC[C@H](OC(=O)CCCc1ccccc1)[C@H](COC(=O)CCCc1ccccc1)OC(=O)CCCc1ccccc1 [THREITOL ANALOG OF PBA, (2S,3S)-butane-1,2,3,4-tetrayl-tetrakis(4-phenylbutanoate), reference compound] | – | – | – | – | – | – | – | – | – | – | – | 37,594 nM · h | 600 mL/h | 24 min | 18 min | 7,161 ml | 12.5 µM
